Source: publication PMC3923730 (Journal of Translational Medicine, 2014)
Values joined by “and” are separate entries in the source; they are usually repeats but may differ in a detail not shown here. Identical values can stand only once.

Key:
[1] = tested on: myocardial infarction model in rats; test: Myocardial infarction model in rats (35 min CAO, reperfusion, infarct size by TTC); assay type: in vivo; settings: rat; for IS (% AAR) / IS (% LV) / IS (% Vehicle IS): 24 h reperfusion, mean ± S.E.M.; for reduction of infarct size compared to control: p < 0.001
Description: In all groups of rats, the left anterior descending coronary artery was occluded during 35 min and released for reperfusion as previously described. For the dose range testing, the vehicle (IL30) or TRO40303 solution in IL30 (stock solution diluted in IL30 to administer ~1.5 mL/kg in each group) at increasing doses (0.3, 1, 3 and 10 mg/kg) were administered as a 5 min infusion through the jugular vein starting 10 min before coronary artery reperfusion (CAR). To evaluate the therapeutic window, the vehicle or TRO40303 at 1 mg/kg were also administered either 10 min before coronary artery occlusion (CAO) or 10 min after CAR. Infarct size was determined by triphenyltetrazolium chloride (TTC) staining and was calculated as a percentage of the area at risk (AAR), 24 h after reperfusion. For the dose range experiment, infarct size was expressed for all doses as a percent of the vehicle group infarct size.

[2] = TRO40303 heart level measurement in rats; assay type: in vivo; settings: rat, 1 mg/kg i.v. in IL30 10 min before CAO or 10 min before CAR, 5 min post reperfusion, AAR and remainder of left ventricle
Description: TRO40303 was administered by intravenous (i.v.) bolus to healthy rats at doses of 0.3, 1, 3 and 10 mg/kg in IL30 under isoflurane gas anaesthesia. A maximum of 0.25 mL of blood was collected into lithium heparin tubes at 5, 15 and 30 min, 1 h, 2 h, 4 h, 8 h and 24 h after drug administration (3 rats per time point). The blood samples were cooled on ice and plasma samples were prepared within 60 min of sampling by centrifugation at 1500 g at 4 °C for 10 min and stored at –20°C until analysis. For heart level measurements, TRO40303 was administrated i.v. to rats undergoing the myocardial infarction procedure at the dose of 1 mg/kg in IL30 either 10 min before CAO or 10 min before CAR. Five min after CAR, rats were anesthetised and sacrificed, hearts were isolated and washed with saline. […] After TRO40303 plasma concentration analysis, TRO40303 plasma AUC(0-∞) (the area under the curve extrapolated from time zero to time infinity), was calculated using Kinetica™, version 4.4.1 (Thermo Electron Corporation, Philadelphia, PA 19103, USA). The results were analyzed in comparison with previous pharmacokinetic data obtained with TRO40303 formulated in HPBCD at 2.5 mg/kg.
Thawed preclinical samples were extracted with acetonitrile, centrifuged, purified on SPEC C2 cartridge (Varian) for the heart samples and analysed along with calibration standards. […]

[3] = 0.3 mg/kg in IL30 i.v. 10 min before CAR
[4] = 1 mg/kg in IL30 i.v. 10 min before CAR
[5] = 3 mg/kg in IL30 i.v. 10 min before CAR
[6] = 10 mg/kg in IL30 i.v. 10 min before CAR

CC(C)CCC[C@@H](C)[C@H]1CC[C@H]2[C@@H]3CC/C(=N\O)[C@](C)(CCCO)[C@H]3CC[C@]12C [TRO40303, 3,5-seco-4-nor-cholestan-5-one oxime-3-ol]
IS (% AAR) [1, 3]: 26 ± 4 % AAR
IS (% LV) [1, 3]: 11 ± 2 % LV
IS (% Vehicle IS) [1, 3]: 77 ± 15 % Vehicle IS
infarct size compared to vehicle ([1]; 0.3 mg/kg in IL30 i.v. bolus 10 min before reperfusion, 24 h after reperfusion): smaller but not significantly different
infarct size compared to vehicle ([1]; 1 mg/kg in IL30 10 min after the onset of CAR): unchanged
reduction of infarct size compared to vehicle ([1]; 1 mg/kg in IL30 10 min before 35 min CAO): 55%
IS (% AAR) [1, 4]: 19 ± 2 % AAR
IS (% LV) [1, 4]: 7 ± 1 % LV
IS (% Vehicle IS) [1, 4]: 56 ± 6 % Vehicle IS
reduction of infarct size compared to vehicle ([1]; 1 mg/kg in IL30 i.v. bolus 10 min before reperfusion, p < 0.01): 40%
IS (% AAR) [1, 5]: 15 ± 2 % AAR
IS (% LV) [1, 5]: 6 ± 1 % LV
IS (% Vehicle IS) [1, 5]: 44 ± 7 % Vehicle IS
reduction of infarct size compared to control ([1]; 3 mg/kg in IL30 i.v. bolus 10 min before reperfusion, 3 mg/kg): 50% and ~ 50%
IS (% AAR) [1, 6]: 25 ± 6 % AAR
IS (% LV) [1, 6]: 7 ± 2 % LV
IS (% Vehicle IS) [1, 6]: 45 ± 10 % Vehicle IS
reduction of infarct size compared to control ([1]; 10 mg/kg in IL30 i.v. bolus 10 min before reperfusion, 10 mg/kg): 50% and ~ 50%
concentration of TRO40303 in heart tissue [2]: ~ 1 μg/g
